Active and inactive are the calls of the source.
Key:
[1] = Vero E6 cell cytotoxicity, dose response, cytotoxicity control for non-replicating M. tuberculosis project, secondary assay (AID 492998); type: functional, VeroE6; conditions: Vero C1008
cells [2] = type: functional
[3] = target: Melanin-concentrating hormone receptor 1 (Homo sapiens, UniProt Q99705); assay: Late-stage fluorescence-based counterscreen for antagonists of the G-protein coupled receptor 7 (GPR7): cell-based dose response assay to identify antagonists of the melanin-concentrating hormone receptor 1 (MCHR1) Set 6.; type: functional
[4] = target: T1, Neuropeptides B/W receptor type 1 (Homo sapiens, UniProt P48145); assay: human NPBW1 receptor blockade, IC50 – cell-based, fluorescence, dose response, set 6, late-stage follow-up (AID 588583); type: functional
T1 sequence (P48145 whole entry): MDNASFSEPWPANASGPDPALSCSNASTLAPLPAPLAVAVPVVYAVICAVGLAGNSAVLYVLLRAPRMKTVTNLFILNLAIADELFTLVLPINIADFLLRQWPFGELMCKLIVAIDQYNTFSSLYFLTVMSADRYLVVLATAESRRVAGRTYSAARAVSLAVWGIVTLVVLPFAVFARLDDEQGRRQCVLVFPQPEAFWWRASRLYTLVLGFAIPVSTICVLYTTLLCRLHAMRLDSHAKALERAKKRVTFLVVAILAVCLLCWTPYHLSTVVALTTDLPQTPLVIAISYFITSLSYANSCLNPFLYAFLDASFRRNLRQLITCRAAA

Melanocortin receptor 4 = Melanocortin receptor 4 (Homo sapiens, UniProt P32245); assay: inhibitors of MC4R cAMP signaling – cell-based, TR-FRET, biased antagonists, dose response (AID 602298); type: functional;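 note: antagonist potency against agonist-stimulated cAMP production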
[5] = cAMP pathway inhibition in counterscreen cell line – TR-FRET cAMP detection, counter-screen for MC4R biased antagonist project, dose response (AID 602305); type: functional, cell-based;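 note: U2OS cells stimulated with forskolin near its EC80 as the cAMP inducer; potency is for inhibition of forskolin-stimulated cAMP signaling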
HEK293 [6] = assay: inhibition of NOD1-driven NF-kB reporter – cell-based, luminescence, uHTS, primary screen (AID 1578); type: functional; conditions: Homo sapiens
HEK293 [7] = assay: cells; type: functional, cell-based; conditions: Homo sapiens
HEK293 [8] = assay: cells; type: functional, cell-based; conditions: Homo sapiens; remark: listed apart in the source
[9] = target: Nucleotide-binding oligomerization domain-containing protein 2 (Homo sapiens, UniProt Q9HC29); assay: inhibition of NOD2-driven NF-kB reporter – cell-based, luminescence, uHTS, HEK293 (AID 1566); type: functional
HEK293 [10] = assay: NOD2 signaling inhibitors in MDP-stimulated cells, cell-based, uHTS, luminescence (AID 2001); type: functional; conditions: Homo sapiens
HEK293 [11] = assay: cells; type: functional, cell-based; conditions: Homo sapiens; remark: listed apart in the source
[12] = Trypanosoma cruzi growth suppression in host cells – NIH3T3 host cells, beta-gal luminescence, confirmation (AID 2044); type: functional, cell-based;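 note: intracellular parasites grown in NIH/3T3 mouse fibroblasts as host cells; luminescent beta-galactosidase reporter signal from transgenic T. cruzi replicating inside host cells; inhibitors lower the luminescence signal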
[13] = NIH3T3 cell viability loss – ATP luminescence, mouse fibroblasts, counter-screen, dose response (AID 2010); type: functional, cell-based;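 note: cells exposed to compound for about 90 hours before reading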
cells [14] = assay: cells
Cytochrome P450 3A4 = Cytochrome P450 3A4 (Homo sapiens, UniProt P08684); conditions: Potency;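 note: confirmatory qHTS run detecting inhibitors and substrates of CYP3A4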
Estrogen receptor = target: T2, Estrogen receptor (Homo sapiens, UniProt P03372);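 note: potency for inhibiting coactivator peptide recruitment to the receptor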
T2 sequence (P03372 whole entry): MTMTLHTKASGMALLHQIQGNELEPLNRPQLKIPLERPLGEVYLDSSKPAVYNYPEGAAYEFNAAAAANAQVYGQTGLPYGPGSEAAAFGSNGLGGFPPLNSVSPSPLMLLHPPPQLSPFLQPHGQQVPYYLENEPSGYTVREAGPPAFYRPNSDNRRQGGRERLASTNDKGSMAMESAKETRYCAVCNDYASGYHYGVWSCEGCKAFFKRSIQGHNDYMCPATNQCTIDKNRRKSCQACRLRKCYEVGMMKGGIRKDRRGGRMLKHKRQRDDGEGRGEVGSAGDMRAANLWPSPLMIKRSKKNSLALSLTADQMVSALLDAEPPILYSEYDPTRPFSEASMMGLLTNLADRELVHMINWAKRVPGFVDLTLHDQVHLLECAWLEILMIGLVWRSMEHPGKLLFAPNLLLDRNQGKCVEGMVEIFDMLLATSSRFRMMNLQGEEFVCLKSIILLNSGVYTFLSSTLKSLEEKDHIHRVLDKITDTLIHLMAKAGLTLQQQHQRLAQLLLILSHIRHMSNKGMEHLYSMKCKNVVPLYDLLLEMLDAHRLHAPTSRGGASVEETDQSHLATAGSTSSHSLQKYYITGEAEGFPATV

HeLa = assay: ATP-based viability loss in HeLa cells – cell-based, CellTiter-Glo luminescence, cherry-pick samples, cytotoxicity control for MITF activator project, dose response (AID 540259); type: functional; conditions: Homo sapiens
Nonstructural protein 1 = Nonstructural protein 1 (Influenza A virus, UniProt Q194T2); type: functional, Influenza A virus (A/California/07/2009(H1N1))
P388/ADR = assay: cells; type: functional; conditions: Mus musculus
SN12K1 = assay: cells; type: functional; conditions: Homo sapiens
P388 = assay: cells; type: functional; conditions: Mus musculus
[15] = target: Luciferin 4-monooxygenase (Photinus pyralis, UniProt P08659); assay: inhibition of purified Photinus pyralis luciferase – biochemical, luminescence, dose response (AID 1891)
[16] = Luminescence Cell-Based Dose Confirmation HTS to Identify Inhibitors of Platelet Dense Granule Release. [Related pubchem assays: 1663 (Primary HTS), 1678 (Summary of Project)]; type: functional

Chain of Nucleotide-binding oligomerization domain-containing protein 2 (Q9HC29 whole entry, the tested form may be a part): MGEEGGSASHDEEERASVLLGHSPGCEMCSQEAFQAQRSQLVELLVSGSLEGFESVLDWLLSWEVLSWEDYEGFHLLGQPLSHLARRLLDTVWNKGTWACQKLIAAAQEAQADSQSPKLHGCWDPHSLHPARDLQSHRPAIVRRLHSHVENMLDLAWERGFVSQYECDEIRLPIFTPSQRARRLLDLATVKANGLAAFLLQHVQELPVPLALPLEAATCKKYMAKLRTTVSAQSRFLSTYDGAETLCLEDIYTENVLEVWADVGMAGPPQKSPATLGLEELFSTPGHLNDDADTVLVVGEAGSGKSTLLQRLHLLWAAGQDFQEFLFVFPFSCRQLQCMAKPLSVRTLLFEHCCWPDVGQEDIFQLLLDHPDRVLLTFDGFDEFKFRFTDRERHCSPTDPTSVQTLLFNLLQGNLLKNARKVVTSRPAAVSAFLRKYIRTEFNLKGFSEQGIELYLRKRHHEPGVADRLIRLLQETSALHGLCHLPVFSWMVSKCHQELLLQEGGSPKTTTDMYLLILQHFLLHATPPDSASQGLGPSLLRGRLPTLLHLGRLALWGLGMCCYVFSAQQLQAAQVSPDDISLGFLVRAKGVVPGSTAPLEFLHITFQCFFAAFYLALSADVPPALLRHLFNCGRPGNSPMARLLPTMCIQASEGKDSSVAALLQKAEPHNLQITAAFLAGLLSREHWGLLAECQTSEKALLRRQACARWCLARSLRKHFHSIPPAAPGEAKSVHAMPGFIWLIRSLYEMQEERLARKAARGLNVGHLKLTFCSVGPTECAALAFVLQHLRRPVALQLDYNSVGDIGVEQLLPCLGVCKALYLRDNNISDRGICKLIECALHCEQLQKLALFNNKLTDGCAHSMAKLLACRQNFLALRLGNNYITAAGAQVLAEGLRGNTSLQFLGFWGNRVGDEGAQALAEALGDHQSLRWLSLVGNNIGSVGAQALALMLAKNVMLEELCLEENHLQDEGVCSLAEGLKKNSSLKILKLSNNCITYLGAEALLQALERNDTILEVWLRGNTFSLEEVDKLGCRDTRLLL
Chain of Melanocortin receptor 4 (P32245 whole entry): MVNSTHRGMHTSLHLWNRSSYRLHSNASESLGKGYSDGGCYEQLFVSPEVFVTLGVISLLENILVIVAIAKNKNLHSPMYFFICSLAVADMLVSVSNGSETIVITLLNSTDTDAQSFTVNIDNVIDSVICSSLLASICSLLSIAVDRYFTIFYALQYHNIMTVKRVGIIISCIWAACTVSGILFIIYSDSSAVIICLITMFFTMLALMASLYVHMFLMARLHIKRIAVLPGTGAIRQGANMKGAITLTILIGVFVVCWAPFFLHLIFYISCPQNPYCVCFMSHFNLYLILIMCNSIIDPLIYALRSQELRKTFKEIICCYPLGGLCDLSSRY
Chain of Melanin-concentrating hormone receptor 1 (Q99705 whole entry): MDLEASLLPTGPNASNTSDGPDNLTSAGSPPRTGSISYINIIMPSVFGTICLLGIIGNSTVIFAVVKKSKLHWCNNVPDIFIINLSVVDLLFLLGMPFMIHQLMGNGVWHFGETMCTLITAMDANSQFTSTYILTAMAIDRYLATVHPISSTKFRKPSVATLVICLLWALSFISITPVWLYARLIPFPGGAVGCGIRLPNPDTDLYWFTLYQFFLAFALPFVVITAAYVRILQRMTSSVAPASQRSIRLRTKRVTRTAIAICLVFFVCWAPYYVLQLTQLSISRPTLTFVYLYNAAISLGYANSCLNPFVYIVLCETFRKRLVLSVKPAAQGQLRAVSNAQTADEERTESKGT
Chain of Nonstructural protein 1 (Q194T2 whole entry): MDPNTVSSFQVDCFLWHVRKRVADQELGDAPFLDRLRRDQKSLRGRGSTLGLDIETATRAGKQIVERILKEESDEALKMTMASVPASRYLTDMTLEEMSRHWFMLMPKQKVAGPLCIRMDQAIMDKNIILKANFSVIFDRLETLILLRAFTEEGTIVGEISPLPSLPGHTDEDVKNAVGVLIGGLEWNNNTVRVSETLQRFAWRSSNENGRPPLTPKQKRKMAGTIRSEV
Chain of Cytochrome P450 3A4 (P08684 whole entry): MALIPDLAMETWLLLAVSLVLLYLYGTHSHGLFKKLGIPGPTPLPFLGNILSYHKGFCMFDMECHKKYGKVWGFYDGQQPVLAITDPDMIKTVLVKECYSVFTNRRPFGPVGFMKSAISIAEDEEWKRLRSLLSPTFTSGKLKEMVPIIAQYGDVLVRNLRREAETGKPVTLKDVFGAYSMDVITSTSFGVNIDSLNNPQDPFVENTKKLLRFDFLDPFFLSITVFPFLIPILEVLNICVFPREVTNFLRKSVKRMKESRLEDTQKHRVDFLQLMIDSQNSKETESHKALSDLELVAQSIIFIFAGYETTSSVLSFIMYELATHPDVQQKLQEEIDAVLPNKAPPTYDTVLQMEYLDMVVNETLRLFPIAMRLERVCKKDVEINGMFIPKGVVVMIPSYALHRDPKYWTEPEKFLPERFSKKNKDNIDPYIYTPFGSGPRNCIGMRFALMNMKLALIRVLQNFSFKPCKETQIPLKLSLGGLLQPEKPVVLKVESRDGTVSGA
Chain of Luciferin 4-monooxygenase (P08659 whole entry): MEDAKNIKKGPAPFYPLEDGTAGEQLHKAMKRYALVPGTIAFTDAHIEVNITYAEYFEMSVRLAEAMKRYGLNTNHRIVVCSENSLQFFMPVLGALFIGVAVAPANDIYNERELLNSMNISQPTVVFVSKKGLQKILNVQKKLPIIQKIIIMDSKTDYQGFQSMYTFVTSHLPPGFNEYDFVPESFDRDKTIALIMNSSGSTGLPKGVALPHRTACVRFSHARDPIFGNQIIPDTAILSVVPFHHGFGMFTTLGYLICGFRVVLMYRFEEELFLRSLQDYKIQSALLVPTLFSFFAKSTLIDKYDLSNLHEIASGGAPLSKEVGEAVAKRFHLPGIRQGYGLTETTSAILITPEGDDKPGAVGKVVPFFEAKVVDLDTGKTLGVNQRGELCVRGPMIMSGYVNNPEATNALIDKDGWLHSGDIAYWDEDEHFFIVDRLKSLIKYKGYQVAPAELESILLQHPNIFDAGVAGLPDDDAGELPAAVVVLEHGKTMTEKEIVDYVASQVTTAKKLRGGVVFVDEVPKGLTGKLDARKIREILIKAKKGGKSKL

For `O=C(Nc1nnc(-c2ccco2)o1)c1cccc2ccccc12`, the CC50 [1] was > 20 µM (active) and the IC50 (cells [2]) was 4.54 µM (active).
For `COc1ccc(C(C#N)c2c(Cl)cnn(Cc3cccc4ccccc34)c2=O)c(F)c1` (configuration not stated), the IC50 [3] was 0.198 µM (active) and the IC50 [4] was 0.198 µM (active).
In the case of `Cc1ccc(-n2cccc2/C=C2\C(=N)N3N=C(C(C)C)SC3=NC2=O)cc1`, the IC50 (Melanocortin receptor 4) is reported as > 64.6 µM (inactive) and the IC50 [5] is reported as > 64.6 µM (inactive).
With `Fc1ccc(F)c(CNc2ncnc3cc(Cl)ccc23)c1` the EC50 (HEK293 [6]) was 9.76 µM (active), the IC50 (HEK293 [7]) was 6.42 µM (active) and the IC50 (HEK293 [8]) was 11.9 µM (active). For the same compound, the EC50 [9] was > 20 µM (inactive), the IC50 (HEK293 [10]) was 12.7 µM (inactive) and the IC50 (HEK293 [11]) was > 20 µM (inactive).
For `COc1ccccc1CN1CC(C(=O)NCCN(C)CCc2ccccc2)CCC1=O` (configuration not stated), the EC50 [12] was < 0.1 µM (active), the EC50 [13] was > 60 µM (not active) and the EC50 (cells [14]) was 0.061 µM (active).
In the case of `CC(=O)C1=C(O)C=C2Oc3c(C(C)=O)c(O)c(C)c(O)c3[C@]2(C)C1=O` [(-)-USNIC ACID], the AC50 (Cytochrome P450 3A4) is reported as 31.6 µM (inconclusive).
In the case of `COc1ccc(C(=O)CSc2nnc(C3CCCCC3)n2N)c(OC)c1`, the IC50 (Estrogen receptor) is reported as > 50 µM (not active).
In the case of `CC(C)CNC(=O)c1c(N)n(/N=C/c2ccccn2)c2nc3ccccc3nc12`, the IC50 (Estrogen receptor) is reported as 15.9 µM (active).
In the case of `Cc1cc(OCC(=O)Nc2ccncc2)cc(C)c1Br`, the EC50 (HEK293 [6]) is reported as 3.21 µM (active), the IC50 (HEK293 [7]) is reported as 5.24 µM (active) and the IC50 (HEK293 [8]) is reported as 13.3 µM (active). For the same compound, the EC50 [9] was 8.76 µM (active), the IC50 (HEK293 [10]) was 6.86 µM (active) and the IC50 (HEK293 [11]) was > 20 µM (inactive).
For `O=C(NCCc1cccs1)c1ccc(Cl)c(Cl)c1`, the AC50 (HeLa) was 44.2 µM (active).
For `Cc1cccn2c(=O)c(C=C(C#N)C#N)c(N3CCN(c4ccccc4)CC3)nc12`, the IC50 (Nonstructural protein 1) was > 100 µM (active).
In the case of `C=C1C(O)C2(O)OCC34C(CC5C(C)=CC(=O)C(O)C5(C)C23)OC(=O)C(OC(=O)C/C=C/CCCCCCCC)C14` (configuration not stated), the GI50 (P388/ADR) is reported as 0.0611 µM (active), the GI50 (SN12K1) is reported as 0.02 µM (active) and the GI50 (P388) is reported as 0.02 µM (active).
With `O=C(CNC(=O)c1ccc(Oc2ccccc2)cc1)OC1CCCCC1=O` (configuration not stated) the IC50 (Melanocortin receptor 4) was > 64.6 µM (inactive) and the IC50 [5] was > 64.6 µM (inactive).
In the case of `O=C(NC(Cc1ccc(I)cc1)C(=O)O)c1cccc(Br)c1` (configuration not stated), the GI50 (P388/ADR) is reported as 55.2 µM (inactive), the GI50 (SN12K1) is reported as > 100 µM (inactive) and the GI50 (P388) is reported as 47.6 µM (inactive).
With `Cc1ccc(N(C)/N=C/c2ccc(Cl)cc2Cl)nn1` the EC50 [15] was > 112 µM (not active), the EC50 [16] was > 112 µM (not active) and the AC50 (HeLa) was 75.3 µM (active).

Source: ChEMBL document CHEMBL1201862, “PubChem BioAssay data set” (2004)
